# According to patent US6949529B2, “Compositions containing lysophosphotidic acids which inhibit apoptosis and uses thereof” (Sky High, LLC, priority 1997, dated 2005):
# System: rat neonatal cardiomyocytes
# Assay: Cardiomyocyte death induced by ischemia and reperfusion (in vitro model)
# Format: cell-based
# Details: mixture with PEG (FIG. 14)
# Protocol: Cardiomyocytes were prepared from hearts of day-old Sprague Dawley rats by trypsinization and mechanical disaggregation (Simpson, (1985)) Circ. Res. 56:884-894. The cells were resuspended in MEM, 1×MEM vitamins (Gibco), 5% fetal bovine serum and 50 U/ml penicillin-G and pre-plated for 30 minutes to reduce contamination of non-myocytes. The non-adherent cardiac myocytes were separated and seeded in 2 ml in 35 mm dishes at a density of 3.5×10^5 viable cells per ml. The cells were allowed to adhere for 16-24 hours in a 37° C./5% CO2 humidified incubator.
# For serum deprivation, the medium was replaced with fresh serum-free RPMI, whereas serum/glucose deprivation was performed using glucose-free RPMI. The induction of cell death by adriamycin or C2-ceramide was accomplished by the addition of the agent prepared in serum-free RPMI. As a model of ischemia, cultures in serum and glucose free RPMI were placed in an airtight chamber and the latter was continuously perfused with oxygen-free gas overlay of 95% N2/5% CO2 for 8 hours at 37° C. […]
# Because cardiomyocytes are terminally differentiated non-dividing cells, viability was determined by measurement of the decrease in the relative number of adherent cells. […] Adherent cardiomyocytes were collected from culture dishes using 0.25% Trypsin/0.05% EDTA and counted on Coulter Counter ZM and Coulter Channelyzer 256.
structure (smiles),measurement,value
"CCCCCCCC/C=C\CCCCCCCC(=O)OCC(O)COP(=O)(O)O (stereo not shown) [18:1 LPA, oleoyl-lysophosphatidic acid]",cardiomyocyte death induced by ischemia and reperfusion,equally protect
